Literature values, collected in US20070231312A1, “NUTRITIONAL SUPPLEMENT FOR PREGNANT FEMALES” (priority 2006, published 2007).

Key:
[1] = system: pregnant rats
[2] = system: women at high risk for developing preeclampsia; settings: treatment group; 1000 μg. per day for 6 to 8 weeks during late gestation; placebo 22.7%
[3] = supplementation in pregnancy
[4] = system: primigravida women; settings: 2 mg. twice daily beginning at 16-20 wks; placebo 17.7%, P<0.05
[5] = system: oxidative mitochondrial damage; settings: in vitro studies, ischemia reperfusion model
[6] = system: glutathione peroxidase; settings: placental homogenates from late human gestation

Question: For `COC(=O)[C@@H](N)CCCNC(=N)N[N+](=O)[O-]` [L-NAME, N^G-nitro-L-arginine methyl ester], which “effects on blood pressure, fetal growth and proteinuria” value [1] is on record?
Answer: elevated blood pressure, fetal retarded growth and proteinuria

Question: Which “incidence of pregnancy-induced hypertension” value [2] does the source give for `[Se]` [Selenium] here?
Answer: 7.7%

Question: Which “level in maternal serum” value [3] does the source give for `CC1=C(/C=C/C(C)=C/C=C/C(C)=C/C=C/C=C(C)/C=C/C=C(C)/C=C/C2=C(C)CCCC2(C)C)C(C)(C)CCC1` [beta-carotene] here?
Answer: increase

Question: For `CC(C)=CCC/C(C)=C/C=C/C(C)=C/C=C/C(C)=C/C=C/C=C(C)/C=C/C=C(C)/C=C/C=C(\C)CCC=C(C)C` [lycopene, Lycopene], which women developing preeclampsia [4] is on record?
Answer: 8.6%

Question: With `COc1ccc2[nH]cc(CCNC(C)=O)c2c1` [melatonin, Melatonin] as the compound, how does the “protection against oxidative mitochondrial damage” value [5] read?
Answer: protects against oxidative mitochondrial damage

Question: What about the glutathione peroxidase activity [6] of the same compound?
Answer: reduction
